The source of these data is US8211929B2, “Pyrimidine derivatives as kinase modulators and method of use” (Exelixis, Inc., priority 2004, dated 2012).

Like-named read-outs stand apart in the source and are kept apart here.

Assay [1] deals with T1, (Homo sapiens, UniProt P08069).
T1 construct: human IGF1R kinase domain residues M954-C1367; made in house; host or cells: baculovirus expression (insect cells)
Nature of the assay: IGF1R kinase assay (LCCA), IGF 0P. It is filed as biochemical. In outline:
(§1)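 Read-out is percent ATP remaining, detected by luciferase-luciferin luminescence after a 2 h ambient reaction. Reaction contained 4 nM IGF1R kinase domain (residues M954-C1367, baculovirus-made), 3 μM ATP (near KM), 4 μM poly EY, pH 7.5 with Mg2+/Mn2+. Ten inhibitor concentrations; IC50 by Hill-type curve fit.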

The target in the next assay is T2, IGF 3P (Homo sapiens, UniProt P08069).
T2 construct: human IGF1R kinase domain residues M954-C1367; made in house; host or cells: baculovirus expression (insect cells)
Nature of the assay: IGF1R kinase assay (LCCA), IGF 3P. It is filed as biochemical. In outline: as §1

T2 sequence (P08069 954-1367): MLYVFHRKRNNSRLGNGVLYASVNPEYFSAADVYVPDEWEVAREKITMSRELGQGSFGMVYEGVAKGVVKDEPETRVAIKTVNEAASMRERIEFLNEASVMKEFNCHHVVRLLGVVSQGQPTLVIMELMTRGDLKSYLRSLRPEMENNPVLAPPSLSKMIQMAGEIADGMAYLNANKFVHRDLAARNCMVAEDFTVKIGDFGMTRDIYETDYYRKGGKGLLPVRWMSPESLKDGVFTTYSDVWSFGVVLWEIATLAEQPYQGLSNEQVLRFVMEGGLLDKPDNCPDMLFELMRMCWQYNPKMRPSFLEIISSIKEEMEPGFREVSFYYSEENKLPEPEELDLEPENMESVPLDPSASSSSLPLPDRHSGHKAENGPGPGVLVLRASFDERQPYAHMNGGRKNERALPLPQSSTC
T1 sequence (P08069 954-1367): as above

What is called IC50 is the concentration needed to halve the response being measured. A higher IC50 goes with weaker potency. For the compound `Nc1ncnc2c1c(-c1cccc(OCc3ccccc3)c1)cn2C1CCCCC1` [Example 350], the IC50 in assay [1] (IGF1R kinase LCCA assay) is more than 5000 nM; on IGF 3P (IGF1R kinase LCCA assay), 500 to 5000 nM.
In the same order, the values of `Cc1cc(Nc2cc(C3CC3)n[nH]2)nc(Nc2ccc3c(c2)CN(C(=O)OC(C)(C)C)CC3)n1` [Example 565] are 500 to 5000 nM and 500 to 5000 nM.
For the compound `O=C(Nc1ncc(Br)c(Nc2cc(C3CC3)[nH]n2)n1)c1ccccc1Cl` [Example 279], the IC50 (in assay [1] (IGF1R kinase LCCA assay); at IGF 3P (IGF1R kinase LCCA assay)) was more than 5000 nM each time.
For `Brc1cnc(NCc2csc(-c3cccs3)n2)nc1Nc1cc(C2CC2)[nH]n1` [Example 218], the IC50 (in assay [1] (IGF1R kinase LCCA assay); at IGF 3P (IGF1R kinase LCCA assay)) was 500 to 5000 nM each time.
`Cc1cc(Nc2nc(NCc3cc(-c4ccccc4)no3)ncc2Br)no1` [Example 296]: the IC50 (in assay [1] (IGF1R kinase LCCA assay); against IGF 3P (IGF1R kinase LCCA assay)) was more than 5000 nM throughout.
Take `Fc1cnc(Nc2ccccc2Cl)nc1Nc1cc(C2CC2)[nH]n1` [Example 168]: the concentration for half-maximal inhibition (IC50) in assay [1] (IGF1R kinase LCCA assay) was 50 to 500 nM; at IGF 3P (IGF1R kinase LCCA assay) it was 500 to 5000 nM.
As for `Cc1cc(Nc2cc(C)on2)nc(Nc2ccc(N3CCOCC3)cc2)n1` [Example 295], the IC50 (in assay [1] (IGF1R kinase LCCA assay); against IGF 3P (IGF1R kinase LCCA assay)) was more than 5000 nM each time.
Regarding `Nc1ncnc2c1c(-c1cccc(OCc3ccccc3)c1)cn2C1CNC1` [Example 348], the IC50 in assay [1] (IGF1R kinase LCCA assay) was more than 5000 nM; against IGF 3P (IGF1R kinase LCCA assay), 500 to 5000 nM.
On the same counts, the results for `CCCCNc1cc(C)nc(Nc2ccc(N3CCOCC3)cc2)n1` [Example 294] are more than 5000 nM and more than 5000 nM.
Consider `Cc1cc(CNc2nc(C)cc(Nc3cc(C4CC4)n[nH]3)n2)on1` [Example 600, N^4-(3-cyclopropyl-1H-pyrazol-5-yl)-6-methyl-N^2-[(3-methylisoxazol-5-yl)methyl]pyrimidine-2,4-diamine], for which the concentration for half-maximal inhibition (IC50) (in assay [1]; at IGF 3P) was 50 to 500 nM throughout.
Turning to `O=C(NCCN1CCCC1)c1cc(Nc2cc(C3CC3)[nH]n2)nc(NCc2cc(-c3ccccc3)no2)n1` [Example 521], the IC50 was 50 to 500 nM in assay [1] (IGF1R kinase LCCA assay) and less than 50 nM against IGF 3P (IGF1R kinase LCCA assay).
In the same order, the values of `CN1CCC(NC(=O)c2ccc(Nc3nccc(Nc4cc(C5CC5)n[nH]4)n3)cc2)CC1` [Example 164] are 500 to 5000 nM and 500 to 5000 nM.
In the same order, the values of `Clc1ccccc1Nc1ncc(Cl)c(Nc2cc(C3CC3)[nH]n2)n1` [Example 101] are 50 to 500 nM and 50 to 500 nM.
For `Clc1ccc(-c2ncc(CNc3ncc(Br)c(Nc4cc(C5CC5)[nH]n4)n3)s2)cc1` [Example 289], the IC50 (in assay [1] (IGF1R kinase LCCA assay); against IGF 3P (IGF1R kinase LCCA assay)) was more than 5000 nM each time.
On to `Nc1cnc(Nc2ccccc2Cl)nc1Nc1cc(C2CC2)n[nH]1` [Example 220], for which the half-maximal inhibitory concentration (IC50) in assay [1] (IGF1R kinase LCCA assay) is 50 to 500 nM; at IGF 3P (IGF1R kinase LCCA assay) it was 500 to 5000 nM.
On the same counts, the results for `Cc1cc(C)cc(Nc2ncc(Br)c(Nc3cc(C4CC4)n[nH]3)n2)c1` [Example 134] are 500 to 5000 nM and 50 to 500 nM.
Consider `CC(C)c1cc(CNc2nc(Nc3cc(C4CC4)n[nH]3)cc(N3CCC(CCO)CC3)n2)on1` [Example 662, 2-(1-{6-[(3-cyclopropyl-1H-pyrazol-5-yl)amino]-2-({[3-(1-methylethyl)isoxazol-5-yl]methyl}amino)pyrimidin-4-yl}piperidin-4-yl)ethanol], for which the IC50 in assay [1] is 50 to 500 nM; on IGF 3P, less than 50 nM.
On to `c1cc(N2CCOCC2)ccc1Nc1nc2c(c(Nc3cc(C4CC4)[nH]n3)n1)CCNC2` [Example 282], for which the IC50 (in assay [1] (IGF1R kinase LCCA assay); against IGF 3P (IGF1R kinase LCCA assay)) was more than 5000 nM throughout.
Take `FC(F)(F)Oc1ccc(Nc2ncc(Br)c(Nc3cc(C4CC4)[nH]n3)n2)c(Br)c1` [Example 237]: the IC50 is more than 5000 nM in assay [1] (IGF1R kinase LCCA assay) and 500 to 5000 nM against IGF 3P (IGF1R kinase LCCA assay).
On the same counts, the results for `CCN(CC)CCNC(=O)c1cc2ccc(Nc3nc(C)cc(Nc4cc(C5CC5)n[nH]4)n3)cc2s1` [Example 221] are 500 to 5000 nM and 500 to 5000 nM.
For `Cc1cc(CNc2nc(Nc3cc(C4CC4)n[nH]3)cc(N3CCOCC3)n2)on1` [Example 601, N^4-(3-cyclopropyl-1H-pyrazol-5-yl)-N^2-[(3-methylisoxazol-5-yl)methyl]-6-morpholin-4-ylpyrimidine-2,4-diamine], the IC50 is 50 to 500 nM in assay [1] and less than 50 nM against IGF 3P.
Regarding `c1ccc(-c2cc(CNc3nc(NCCN4CCOCC4)cc(Nc4cc(C5CC5)[nH]n4)n3)on2)cc1` [Example 513], the results for the half-maximal inhibitory concentration (IC50) (in assay [1] (IGF1R kinase LCCA assay); against IGF 3P (IGF1R kinase LCCA assay)) were 50 to 500 nM and less than 50 nM, respectively.
In the same order, the values of `CC(C)c1cc(Nc2cc(N3CCOCC3)nc(NCc3cc(-c4ccccc4)no3)n2)n[nH]1` [Example 496] are 50 to 500 nM and less than 50 nM.
